Data taken from ChEMBL document CHEMBL1141727, “Isolation and cytotoxic evaluation of marine sponge-derived norterpene peroxides” (J Nat Prod, 1998).

Tests used:
Assay type in all cases: functional
[1] = system: SF-295; assay: Growth inhibition of human SF295 cells
[2] = system: UACC-257; assay: Growth inhibition of human UACC257 cells
[3] = system: P388; assay: Growth inhibition of mouse P388 cells assessed as zone units at 50 ug/disk by disk diffusion agar colony formation assay
[4] = system: HCT-116; assay: Growth inhibition of human HCT116 cells
[5] = system: ACHN; assay: Growth inhibition of human ACHN cells
[6] = system: HL-60(TB); assay: Growth inhibition of human HL-60(TB) cells
[7] = system: CCRF-CEM; assay: Growth inhibition of human CCRF-CEM cells
[8] = system: A549; assay: Growth inhibition of human A549 cells
[9] = system: NCI-H460; assay: Growth inhibition of human NCI-H460 cells
[10] = system: NCI-H226; assay: Growth inhibition of human NCI-H226 cells
[11] = system: PO3; assay: Growth inhibition of mouse PO3 cells assessed as zone units at 50 ug/disk by disk diffusion agar colony formation assay
[12] = system: T47D; assay: Growth inhibition of human T47D cells
[13] = system: OVCAR-5; assay: Growth inhibition of human OVCAR5 cells
[14] = system: DU-145; assay: Growth inhibition of human DU145 cells
[15] = Growth inhibition of mouse M17/ADR cells assessed as zone units at 50 ug/disk by disk diffusion agar colony formation assay
[16] = system: MOLT-4; assay: Growth inhibition of human MOLT4 cells
[17] = Growth inhibition of human […] cells
[18] = system: UO-31; assay: Growth inhibition of human UO31 cells
[19] = system: COLO 205; assay: Growth inhibition of human COLO205 cells
[20] = system: SK-MEL-28; assay: Growth inhibition of human SK-MEL-28 cells
[21] = Growth inhibition of human Hs 578T cells
[22] = system: MDA-MB-435; assay: Growth inhibition of human MDA-MB-435 cells
[23] = system: MCF7; assay: Growth inhibition of human MCF7 cells
[24] = system: HOP-62; assay: Growth inhibition of human HOP62 cells
[25] = system: IGROV-1; assay: Growth inhibition of human IGROV1 cells
[26] = system: UACC-62; assay: Growth inhibition of human UACC62 cells
[27] = system: A498; assay: Growth inhibition of human A498 cells
[28] = system: HT-29; assay: Growth inhibition of human HT-29 cells
[29] = system: 786-0; assay: Growth inhibition of human 786-0 cells
[30] = system: SN12C; assay: Growth inhibition of human SN12C cells
[31] = system: OVCAR-4; assay: Growth inhibition of human OVCAR4 cells
[32] = system: NCI-H522; assay: Growth inhibition of human NCI-H522 cells
[33] = system: M14; assay: Growth inhibition of human M14 cells
[34] = system: MDA-N; assay: Growth inhibition of human MDA-N cells
[35] = system: SW-620; assay: Growth inhibition of human SW620 cells
[36] = system: EKVX; assay: Growth inhibition of human EKVX cells
[37] = system: SR; assay: Growth inhibition of human SR cells
[38] = system: HOP-92; assay: Growth inhibition of human HOP92 cells
[39] = system: OVCAR-8; assay: Growth inhibition of human OVCAR8 cells
[40] = system: HCC 2998; assay: Growth inhibition of human HCC2998 cells
[41] = system: HCT-15; assay: Growth inhibition of human HCT15 cells
[42] = system: MDA-MB-231; assay: Growth inhibition of human MDA-MB-231 cells
[43] = system: KM12; assay: Growth inhibition of human KM12 cells
[44] = system: SK-MEL-2; assay: Growth inhibition of human SK-MEL-2 cells
[45] = system: SNB-75; assay: Growth inhibition of human SNB75 cells
[46] = system: RXF 393; assay: Growth inhibition of human […] cells
[47] = system: SF-539; assay: Growth inhibition of human SF539 cells
[48] = system: SK-OV-3; assay: Growth inhibition of human SKOV3 cells
[49] = system: U-251; assay: Growth inhibition of human U251 cells
[50] = system: CX-1; assay: Growth inhibition of human CX-1 cells assessed as zone units at 50 ug/disk by disk diffusion agar colony formation assay
[51] = system: NCI-H23; assay: Growth inhibition of human NCI-H23 cells
[52] = system: BT-549; assay: Growth inhibition of human BT549 cells
[53] = system: NCI-H322M; assay: Growth inhibition of human NCI-H322M cells
[54] = system: OVCAR-3; assay: Growth inhibition of human OVCAR-3 cells
[55] = system: CAKI-1; assay: Growth inhibition of human Caki1 cells
[56] = system: SK-MEL-5; assay: Growth inhibition of human SK-MEL-5 cells
[57] = Growth inhibition of human MCF7/ADR resistant cells; settings: NCI/ADR-RES
[58] = system: L1210; assay: Growth inhibition of mouse L1210 cells assessed as zone units at 50 ug/disk by disk diffusion agar colony formation assay
[59] = system: Malme-3M; assay: Growth inhibition of human MALME-3M cells
[60] = system: SNB-19; assay: Growth inhibition of human SNB19 cells
[61] = system: TK-10; assay: Growth inhibition of human TK10 cells
[62] = system: K562; assay: Growth inhibition of human K562 cells
[63] = system: PC-3; assay: Growth inhibition of human PC3 cells
[64] = system: LOX IMVI; assay: Growth inhibition of human LOXIMVI cells
[65] = system: MC-38; assay: Growth inhibition of mouse C38 cells assessed as zone units at 50 ug/disk by disk diffusion agar colony formation assay

C=C1CCC[C@H]2[C@](C)(CCC(C)=O)[C@@H](C)CC[C@]12C
GI50 [1]: > 15 µM | GI50 [2]: > 15 µM | Activity [3]: 0 Zone units | GI50 [4]: > 15 µM | GI50 [5]: > 15 µM | GI50 [6]: > 15 µM | GI50 [7]: > 15 µM | GI50 [8]: > 15 µM | GI50 [9]: > 15 µM | GI50 [10]: > 15 µM | Activity [11]: 0 Zone units | GI50 [12]: > 15 µM | GI50 [13]: > 15 µM | GI50 [14]: > 15 µM | Activity [15]: 0 Zone units | GI50 [16]: > 15 µM | GI50 [17]: > 15 µM | GI50 [18]: > 15 µM | GI50 [19]: > 15 µM | GI50 [20]: > 15 µM | GI50 [21]: > 15 µM | GI50 [22]: > 15 µM | GI50 [23]: > 15 µM | GI50 [24]: > 15 µM | GI50 [25]: > 15 µM | GI50 [26]: > 15 µM | GI50 [27]: > 15 µM | GI50 [28]: > 15 µM | GI50 [29]: > 15 µM | GI50 [30]: > 15 µM | GI50 [31]: > 15 µM | GI50 [32]: > 15 µM | GI50 [33]: > 15 µM | GI50 [34]: > 15 µM | GI50 [35]: > 15 µM | GI50 [36]: > 15 µM | GI50 [37]: > 15 µM | GI50 [38]: > 15 µM | GI50 [39]: > 15 µM | GI50 [40]: > 15 µM | GI50 [41]: > 15 µM | GI50 [42]: > 15 µM | GI50 [43]: > 15 µM | GI50 [44]: > 15 µM | GI50 [45]: 3.02 µM | GI50 [46]: > 15 µM | GI50 [47]: > 15 µM | GI50 [48]: > 15 µM | GI50 [49]: > 15 µM | Activity [50]: 100 Zone units | GI50 [51]: > 15 µM | GI50 [52]: > 15 µM | GI50 [53]: > 15 µM | GI50 [54]: > 15 µM | GI50 [55]: > 15 µM | GI50 [56]: > 15 µM | GI50 [57]: > 15 µM | Activity [58]: 0 Zone units | GI50 [59]: > 15 µM

C=C1CCCC(C)(C)C1CCC1(C)CC[C@H]([C@@H](C)C(=O)O)OO1 (single isomer, unassigned) [NAPAPUIN B]
GI50 [1]: 5.44 µM | GI50 [2]: > 12.5 µM | Activity [3]: 230 Zone units | GI50 [4]: 5.19 µM | GI50 [60]: > 12.5 µM | GI50 [5]: 7.83 µM | GI50 [6]: 1.63 µM | GI50 [7]: 1.76 µM | GI50 [8]: 3.05 µM | GI50 [9]: 1.83 µM | GI50 [10]: 12.5 µM | GI50 [12]: 3.35 µM | GI50 [61]: 4.06 µM | GI50 [62]: 3.3 µM | GI50 [13]: > 12.5 µM | GI50 [14]: 2.71 µM | Activity [15]: 330 Zone units | GI50 [16]: 2.16 µM | GI50 [17]: 3.91 µM | GI50 [18]: 4.31 µM | GI50 [19]: 8.31 µM | GI50 [20]: > 12.5 µM | GI50 [21]: 8.74 µM | GI50 [22]: 2.69 µM | GI50 [23]: > 12.5 µM | GI50 [24]: 2.11 µM | GI50 [25]: 0.63 µM | GI50 [26]: 9.24 µM | GI50 [27]: > 12.5 µM | GI50 [28]: 9.26 µM | GI50 [63]: > 12.5 µM | GI50 [29]: 0.94 µM | GI50 [30]: 11.3 µM | GI50 [31]: 2.4 µM | GI50 [32]: 1.21 µM | GI50 [33]: 12.2 µM | GI50 [34]: 3.52 µM | GI50 [35]: 7.23 µM | GI50 [64]: 0.25 µM | GI50 [36]: 3.19 µM | GI50 [37]: 1.8 µM | GI50 [38]: 2.23 µM | GI50 [39]: > 12.5 µM | GI50 [40]: 6.78 µM | GI50 [41]: 10.7 µM | GI50 [42]: 7.44 µM | GI50 [43]: 4.82 µM | GI50 [44]: 5.06 µM | GI50 [45]: 3.39 µM | GI50 [46]: 5.04 µM | GI50 [47]: 3.28 µM | GI50 [48]: 9.24 µM | GI50 [49]: 4.33 µM | Activity [50]: 200 Zone units | Activity [65]: 300 Zone units | GI50 [51]: 7.61 µM | GI50 [52]: 1.05 µM | GI50 [53]: 12.5 µM | GI50 [54]: 2.49 µM | GI50 [55]: 2 µM | GI50 [56]: 6.14 µM | GI50 [57]: 8.78 µM | Activity [58]: 230 Zone units | GI50 [59]: > 12.5 µM
